# Results reported in patent publication US4035485A, “Polypeptides” (Imperial Chemical Industries Limited, priority 1974, dated 1977).
# Legend:
# [1] = system: secretion of acidic gastric juice in dogs provided with a Heidenhain pouch and whose gastric secretion is stimulated with histamine; test: Inhibition of histamine-stimulated gastric acid secretion in Heidenhain pouch dogs, intravenous injection; type: in vivo, dog; settings: for biological activity (inhibition of the secretion of acidic gastric juice), in words: dog, histamine-stimulated gastric secretion; for biological potency (amount causing a 50-70% inhibition of acid secretion): intravenous injection, dog with Heidenhain pouch, secretion stimulated to 60-80% of maximum by histamine infusion, expressed as a range of doses; for biological activity, inhibition of gastric secretion: single determination, single intravenous injection
# Description: This test is used to determine the biological potency of the products, which is defined as the amount of the products which, on administration by intravenous injection to a dog provided with a Heidenhain pouch and whose secretion of gastric acid is stimulated to 60-80- % of the maximum level of secretion by an infusion of histamine, causes a 50-70% inhibition of that acid secretion. Some variation in the biological potency of a particular sample is found if it is measured in different dogs or on different occasions and so the result is best expressed as a range of doses. The physiological effect of inhibiting the secretion of acidic gastric juice is of value in the treatment of duodenal ulcers, and under the test conditions, no serious toxic effects were observed. The polypeptides of the invention also show ulcer healing properties in a standard test.
# In the case of each process involving the use of a chromatography column, the eluate was collected in fractions consisting of a defined number of drops using an Ultrorac LKB 7,000 fraction collector (LKB Instruments Ltd., Croydon, Surrey, U.K.) and these fractions assayed for peptide material by measuring the U.V. absorption at 280 mμ. The material was then collected in fractions and the material assayed for biological activity as follows:
# Dogs were prepared with separated denervated fundic pouches, and a subcutaneous infusion of histamine was used to stimulate gastric secretion to approximately 60-80% of the maximal rate [usually an infusion of a solution of 600 μg. of histamine (expressed as base) in 0.48 ml. per hour is adequate]. A known amount of test material was dissolved in isotonic saline and, when the dog was secreting gastric juice at a steady rate, a single intravenous injection of this material was administered.
# The biological potency may be determined from the results obtained at several different doses.
# [2] = Water solubility of the isolated lyophilized polypeptide; type: physicochemical; settings: lyophilized white acidic polypeptide
Substance,"biological activity (inhibition of the secretion of acidic gastric juice), in words [1]",solubility in water [2],"biological activity (inhibition of the secretion of acidic gastric juice), in words ([1]; listed as polypeptide of the invention)",biological potency (amount causing a 50-70% inhibition of acid secretion) [1],"biological activity, inhibition of gastric secretion ([1]; dose equivalent to 0.6 μg./kg. of starting material)","biological activity, inhibition of gastric secretion ([1]; dose equivalent to 0.7 μg./kg. of starting material)"
"3: polypeptide of Example 2 in which the cystine residues had been reduced to cysteine residues (NSDSECPLSHDGYCLHDGVCMYIEALDKYACNCVVGYIGERCQYRD; Epidermal growth factor cystines reduced; UniProt P01133 971-1016, looked up, fragment) [Example 3]",potent inhibitors,–,–,–,–,–
"Example 2: 46-residue single-chain polypeptide with three internal disulphide bonds, from the 47-residue polypeptide by carboxypeptidase A cleavage of C-terminal leucine (NSDSECPLSHDGYCLHDGVCMYIEALDKYACNCVVGYIGERCQYRD; Epidermal growth factor; UniProt P01133 971-1016, looked up, fragment)",biologically active,water soluble,potent inhibitors,0.2 to 1 μg./kg.,42%,–
"material in fractions 38-52: peptide cleaved from β-urogastrone by AM protease; ratios Glu 1, Leu 1, Lys 1, Trp 2, Arg 1; N-terminal lysine (KWWELR; Epidermal growth factor; UniProt P01133 1018-1023, looked up, fragment)",biologically inactive,–,–,–,–,–
"polypeptide having 47 amino-acid residues: 47-residue single-chain polypeptide with three disulphide bonds obtained by incubating β-urogastrone with AM protease (NSDSECPLSHDGYCLHDGVCMYIEALDKYACNCVVGYIGERCQYRDL; Epidermal growth factor; UniProt P01133 971-1017, looked up, fragment)",biologically active,water soluble,–,0.2 to 1 μg./kg.,–,30%
